From ChEMBL document CHEMBL1201862, “PubChem BioAssay data set” (2004)
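Cells were grown in 96-well plates and exposed to each compound for 48 hours at five concentrations; endpoints were interpolated linearly between bracketing concentrations, or set to the highest concentration if not reached. Abbreviation: GI50, concentration required for 50% inhibition of growth.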 Active and inactive are the calls of the source. No stated cut-off is given here; in the data, active = GI50 up to about 1.1 µM and inactive = higher.

What was measured:
Assay in all cases: NCI anticancer screen, dose series, 48 h
SF-268 = tested on: SF-268
Malme-3M = tested on: Malme-3M
IGROV-1 = tested on: IGROV-1
NCI-H460 = tested on: NCI-H460
MDA-N = tested on: MDA-N
MDA-MB-435 = tested on: MDA-MB-435
NCI-H23 = tested on: NCI-H23
786-0 = tested on: 786-0
K562 = tested on: K562
KM12 = tested on: KM12
UACC-62 = tested on: UACC-62
A498 = tested on: A498
BT-549 = tested on: BT-549
SW-620 = tested on: SW-620
LOX IMVI = tested on: LOX IMVI
NCI-H522 = tested on: NCI-H522
ACHN = tested on: ACHN
HCT-15 = tested on: HCT-15
SR = tested on: SR

Compound	GI50 (SF-268)	GI50 (Malme-3M)	GI50 (IGROV-1)	GI50 (NCI-H460)	GI50 (MDA-N)	GI50 (MDA-MB-435)	GI50 (NCI-H23)	GI50 (786-0)	GI50 (K562)	GI50 (KM12)	GI50 (UACC-62)	GI50 (A498)	GI50 (BT-549)	GI50 (SW-620)	GI50 (LOX IMVI)	GI50 (NCI-H522)	GI50 (ACHN)	GI50 (HCT-15) [µM]	GI50 (SR)
CC(=O)NS(=O)(=O)c1ccc(NCc2cccc3c(=O)c4ccc(Cl)cc4oc23)cc1	30.8 µM (inactive)	26.4 µM (inactive)	24.8 µM (inactive)	19.7 µM (inactive)	42.6 µM (inactive)	38.3 µM (inactive)	33 µM (inactive)	> 55.8 µM (inactive)	6.14 µM (inactive)	20.5 µM (inactive)	48 µM (inactive)	41.9 µM (inactive)	> 54.2 µM (inactive)	34 µM (inactive)	> 33.2 µM (inactive)	27.4 µM (inactive)	38.5 µM (inactive)	7.76	–
Cc1ccc([S+]([O-])CC(CF)OCn2cc(C)c(=O)[nH]c2=O)cc1 (stereo not given)	> 100 µM (inactive)	> 100 µM (inactive)	> 100 µM (inactive)	> 100 µM (inactive)	> 100 µM (inactive)	> 100 µM (inactive)	> 100 µM (inactive)	> 100 µM (inactive)	–	> 100 µM (inactive)	> 100 µM (inactive)	–	90.2 µM (inactive)	> 100 µM (inactive)	> 100 µM (inactive)	> 100 µM (inactive)	> 100 µM (inactive)	> 100	> 100 µM (inactive)
O=c1[nH]nc(Cc2ccccc2)n1/N=C/c1ccc([N+](=O)[O-])o1	2.59 µM (inactive)	1.51 µM (inactive)	2.67 µM (inactive)	3.46 µM (inactive)	1.69 µM (inactive)	1.57 µM (inactive)	3.57 µM (inactive)	2.76 µM (inactive)	4.09 µM (inactive)	2.15 µM (inactive)	1.75 µM (inactive)	7.41 µM (inactive)	0.308 µM (active)	1.39 µM (inactive)	0.659 µM (active)	1.39 µM (inactive)	3.4 µM (inactive)	2.08	–
COc1ccc(-n2c(=O)c3nc[nH]c3n(-c3ccc(OC)cc3)c2=S)cc1	> 100 µM (inactive)	–	> 100 µM (inactive)	> 100 µM (inactive)	–	> 100 µM (inactive)	> 100 µM (inactive)	> 100 µM (inactive)	> 100 µM (inactive)	> 100 µM (inactive)	> 100 µM (inactive)	> 100 µM (inactive)	> 100 µM (inactive)	> 100 µM (inactive)	> 100 µM (inactive)	17.7 µM (inactive)	> 100 µM (inactive)	> 100	> 100 µM (inactive)
